The test system of this test is Histamin-induzierte Bronchokonstriktion. Nature of the test: Influence on histamine-induced bronchoconstriction in anaesthetised, ventilated guinea pigs (modified Konzett-Rössler method), test substance given as aerosol. The test is classed as in vivo, Meerschweinchen. As to conditions: for % Hemmung der Histamin-induzierten Bronchokonstriktion: n = 6, change vs control. The procedure: a) Beeinflussung von Atemwegsstörungen Einfluß auf die histamin-induzierte Bronchokonstriktion am Meerschweinchen
Albino-Meerschweinchen beiderlei Geschlechts mit einem Gewicht zwischen 450 und 550 g wurden mit 60 mg/kg Pentobarbital i.p. narkotisiert. Nach Tracheotomie wurden sie mit einer Starlingpumpe (Fa. Braun, Melsungen) beatmet. Das Atemvolumen wurde so gewählt, daß die Lungen ausgiebig belüftet wurden. Der Beatmungsdruck wurde mit Hilfe einer Wassersäule auf 80 mm H₂O eingestellt (Rosenthal und Dervinis). Die Atemfrequenz betrug 30 Atemzüge/min. Ein Überschuß an verfügbarer Atemluft kann durch einen Nebenweg im Einatemschlauch zu einer als Wasser-Überdruckventil geschalteten Waschflasche gelangen. Wird von der Starling-Pumpe durch den Einatemschlauch Luft in die Lunge geblasen, so füllt sich diese so lange, bis der Druck in dem System den durch die Höhe der Wassersäule eingestellten Wert (80 mm H₂O) erreicht hat. Die noch weiter zuströmende Luft fließt durch das Überdruckventil in die Waschflasche. Dieser Luftüberschuß, der nach Überschreiten des eingestellten Drucks in die Flasche entweicht, wird mit Hilfe eines Pistonrekorders gemessen und gilt als Maß für eine Veränderung des Atemwiderstands. Die Messung erfolgte in einer von der ursprünglichen Konzett-Rössler-Methode leicht modifizierten Weise, indem der Pistonrekorder durch ein Staudruckrohr nach Fleisch (Typ 0000) ersetzt wurde. Der auftretende Druckunterschled wurde mit einem Differenzdruckwandler Statham PM 97 TC erfaßt. Zur Aufzeichnung der Meßwerte diente ein Mehrfachkanalschreiber der Fa. Hellige.
Die Testsubstanzen werden als Aerosol mit Hilfe eines Ultraschallverneblers (Monaghan M 650) verabreicht. Die Verneblerkammer wird in den Einatemschlauch der Atempumpe zwischengeschaltet und den Tieren gestattet, das Aerosol 1 min lang einzuatmen. Das zu vernebelnde Volumen beträgt 0,02 ml/min.
Vernebelt wird eine physiologische Kochsalzlösung, der die zu prüfende Substanz in Form einer Lösung in Propandiol zugesetzt wird.
In einem Kontrollversuch wird sichergestellt, daß das Lösemittel Propandiol/physiologische Kochsalzlösung keine Eigenwirkung besitzt.
Eine Bronchokonstriktion wird durch Gaben von Histamindihydrochlorid (6 - 12 »g/kg i.v.) induziert. Die Injektion erfolgt durch einen in die V. jugularis eingeführten Katheter. Die Dosierung wird so gewählt, daß ein respiratorischer "Überfluß" von 60 % des angebotenen Atemvolumens während der Histamin-induzierten Bronchokonstriktion auftritt. Die Histamingaben erfolgen in 5-Minuten-Intervallen. Nach mindestens 3 gut reproduzierbaren Bronchokonstriktionen werden die Testsubstanzen als Aerosol 1 min lang verabreicht und nach einer Einwirkungszeit von 2 min erneut die Bronchokonstriktion induziert und in 5-Minuten-Intervallen wiederholt. […]

As for `CC1(C)Oc2ccc(S(=O)(=O)c3ccccc3)cc2C(N2CCCC2=O)C1O` (single isomer, unassigned; (+)) [Beispiel 5a, (+)-3,4-Dihydro-2,2-dimethyl-6-phenylsulfonyl-4-(2-oxo-1-pyrrolidinyl)-2H-benzo[b]pyran-3-ol], the ED50 (Cavia porcellus, inhaled or nasal, aerosol, determined by linear regression of the % inhibition results, read-out: ID₅₀) is 4.39 µg/kg. Besides, the “% Hemmung der Histamin-induzierten Bronchokonstriktion” value stood at 14 ± 4% (Dosis 1 »g/kg as aerosol for 1 min), 35 ± 4% (Dosis 3 »g/kg as aerosol for 1 min) and 77 ± 7% (Dosis 10 »g/kg as aerosol for 1 min).
